Source: patent publication US20240208895A1, “BRANCHED-CHAIN AMINO ACID DERIVATIVES TO TREAT DISEASE” (INTRABIO LTD., priority 2021, published 2024)

Assays:
[1] = target: T1, monocarboxylate transporter (MCT1) (Homo sapiens, UniProt P53985); settings: read-out: Km, uptake by MCT1; uptake 1 min, room temperature
T1 sequence (P53985 1-500): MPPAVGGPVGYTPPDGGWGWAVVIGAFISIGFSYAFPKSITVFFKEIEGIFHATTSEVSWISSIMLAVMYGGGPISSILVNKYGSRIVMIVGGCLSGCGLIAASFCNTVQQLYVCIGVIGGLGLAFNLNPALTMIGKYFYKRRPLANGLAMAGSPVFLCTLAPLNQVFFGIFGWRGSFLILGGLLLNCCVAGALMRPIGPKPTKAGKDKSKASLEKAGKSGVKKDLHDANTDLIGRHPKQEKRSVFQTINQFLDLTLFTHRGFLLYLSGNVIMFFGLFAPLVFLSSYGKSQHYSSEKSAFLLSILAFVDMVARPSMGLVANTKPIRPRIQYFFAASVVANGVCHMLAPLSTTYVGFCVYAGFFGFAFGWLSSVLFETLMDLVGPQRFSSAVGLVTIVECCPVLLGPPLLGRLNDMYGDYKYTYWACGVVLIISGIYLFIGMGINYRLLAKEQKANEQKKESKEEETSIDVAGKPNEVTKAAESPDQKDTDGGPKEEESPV
Description: The known probe substrates used as positive controls are 3 μM chlorothiazide for OAT1, 2 μM estrone-3-sulfate for OAT3, 10 μM gabapentin for LAT1, 50 μM Gly-Sar for PepT1, 500 μM thiophene-2-glyoxylic acid for MCT1.
Enzyme kinetic data for uptake and metabolism of a Compound of the Disclosure is analysed by fitting the Michaelis-Menten equation to the data. V0=Vmax[S]/Km+[S], where V0 is initial velocity, [S] is substrate concentration, Vmax is maximum velocity and Km is substrate concentration at half Vmax. All fitting is performed using GraphPad Prism 8.4 software (GraphPad Software Inc). No weighting scheme is applied.

physchem = assay type: physicochemical
Source text: The physiochemical parameters of L-leucine were compared with N-acetyl-L-leucine. […] Log P is the octanol:water partition coefficient for the neutral form of a compound. In contrast, log D considers the ionization state of a molecule in aqueous (biological) solution resulting from basic groups gaining a proton and acidic groups losing a proton, and as such is better correlated with passive diffusion across membranes.

OAT3 (SLC22A8) = target: T2, OAT3 (SLC22A8) (Homo sapiens, UniProt Q8TCC7); experiment: OAT3 transporter-mediated cellular uptake (substrate test); assay type: cell-based; settings: uptake 5 min, 37° C.
T2 construct: host or cells: HEK-293
T2 sequence (Q8TCC7 1-542): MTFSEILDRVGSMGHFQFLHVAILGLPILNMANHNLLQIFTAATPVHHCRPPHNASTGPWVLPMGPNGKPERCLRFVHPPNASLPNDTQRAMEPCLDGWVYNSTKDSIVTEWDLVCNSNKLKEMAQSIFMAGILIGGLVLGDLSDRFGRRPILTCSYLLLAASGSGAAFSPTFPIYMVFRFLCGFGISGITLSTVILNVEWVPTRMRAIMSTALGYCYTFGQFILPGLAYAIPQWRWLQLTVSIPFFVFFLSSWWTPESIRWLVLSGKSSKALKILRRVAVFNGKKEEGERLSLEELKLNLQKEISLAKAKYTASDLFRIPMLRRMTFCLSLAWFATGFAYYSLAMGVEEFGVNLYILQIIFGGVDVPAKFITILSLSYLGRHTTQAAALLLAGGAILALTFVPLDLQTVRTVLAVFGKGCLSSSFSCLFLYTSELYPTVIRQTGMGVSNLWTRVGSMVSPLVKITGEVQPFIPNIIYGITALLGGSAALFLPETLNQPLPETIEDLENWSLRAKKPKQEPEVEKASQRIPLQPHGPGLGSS
Description: DMSO (0.5%) was the solvent control (SC) and the known inhibitor diclofenac (100 μM) was the positive control (PC). Data were fit to either the Michalis-Menten equation for uptake or the Hill equation for inhibition using the solvent control to define the top and the positive control inhibitor to define the bottom. Symbols represent the mean±SEM, n=3.
Human OAT1 (SLC22A6) and OAT3 (SLC22A8) overexpressing HEK-293 cells and control cells without transfected transporter (Corning® TransportoCells™) are plated to 24-well plates and cellular uptake of 10 to 100 μg/mL of a Compound of the Disclosure is measured in the absence and presence of transporter inhibitors. Uptake of a Compound of the Disclosure into control cells is measured only without chemical inhibitors. […] Cells are grown in DMEM (Gibco 4196, high glucose, without sodium pyruvate) supplemented with MEM non-essential amino acids and 10% fetal bovine serum. Cells are re-fed with fresh medium after attachment (4-6 hours post-seeding). Cell are plated at a density of 4×10^5/well in 24-well plates coated with poly-D-lysine. Transporter assays are conducted in 400 μL of HBSS supplemented with 10 mM Hepes, pH 7.4 […]
Enzyme kinetic data for uptake and metabolism of a Compound of the Disclosure is analysed by fitting the Michaelis-Menten equation to the data. […]

SMILES: CC(=O)N[C@@H](CC(C)C)C(=O)O [N-acetyl-L-leucine]
- Km [1]: 3000 µM
- logD (physchem): -2.54
- substrate of OAT3 (uptake) (OAT3 (SLC22A8)): substrate
